The test system of assay [1] is EMT phenotypic cells (MCF-7/TGFβ, MDA-MB-231 and T47D-shNMI). Put plainly: phage capture assay. The following applies: for selectivity for EMT phenotypic cells: MDA-MB-231 and T47D-shNMI, selective = at least five times higher relative binding. Type of assay: cell-based, human. From the text:
(§1) Individual phage clones were characterized for their selectivity toward EMT cells, MCF-7/TGFβ and MDA-MB-231 breast cancer cells in comparison with epithelial breast cancer cells, MCF-7, T47D, and breast fibroblasts using phage capture assay and cell-based ELISA.
(§2) In phage capture assay, briefly, target cells MCF-7/TGFβ, MDA-MB-231, MCF-7, T47D, T47D-shNMI and breast fibroblasts were cultivated in triplicate to confluence in separate wells of 12-well cell culture plates. The medium with serum was incubated in separate wells in triplicate as a control. Cells were incubated with phage (1×10^10 pfu) at RT for 1 h. Unbound phages were carefully removed and cells were washed with 100 μl washing buffer for 5 min eight times to remove non-specifically interacting phages. Cells were lysed with […] (2.5% CHAPS) for 10 min on a rocker. The lysate containing cell-interacting phages was titered in E. coli ER2738 bacterial cells. Phage recovery was calculated as a ratio of output to input phage.

The next assay relates to MDA-MB-231. The assay is described as follows: immunofluorescence microscopy of phage binding. The class given is cell-based, human. The following applies: 10^8 pfu, RT 1 hr. As to the method:
(§3) MCF-7, MCF-7/TGFβ, MDA-MB-231 and Hs578T (breast fibroblasts) cells were seeded in a 4-well chamber overnight. On the next day, cells were fed with fresh medium. LGLRGSL (SEQ ID NO: 1) (E11) (10^8 pfu) was added in fresh medium and incubated at RT for one hour. After removing the unbound phages, cells were washed with wash buffer (0.1% tween-20 in PBS) three times and fixed with 4% formaldehyde for 15 minutes at 37° C. Cells were permeabilized with 0.2% Triton X-100 at RT for 10 minutes. Reagent was removed and cells were washed with TBS 3 times. Before incubation with anti-phage antibody, cells were treated with blocking buffer for 30 minutes at RT. Cells were incubated with M13-pIII monoclonal antibody for 1 hour at RT, washed and incubated with the secondary goat anti-mouse IgG antibody labeled with Alexa Flour® 488 (Molecular Probes) at a dilution of 1:500 in PBS containing 1% BSA for 45 minutes at RT. Cells were washed three times after secondary antibody treatment. TOTO-3 was used for nucleus staining. Cells were covered with cover slides with Prolong Gold Anti-fade Reagents. Nail polish was used to seal the slide. Pictures were taken by using the NIKON eclipse TE 2000-E confocal microscope.
(§4) To further confirm the specificity of LGLRGSL (SEQ ID NO: 1) (E11) towards breast cancer cells with an EMT phenotype, immunofluorescence microscopy of intact cells (MCF-7/TGF β and MDA-MB-231), and control MCF-7 breast cancer cells and breast fibroblasts (Hs578T) were used. All cells were treated with the phage (10^8 pfu) at RT for 1 hr, and subsequently incubated with primary anti-pIII antibody and then stained with secondary anti-mouse Alexa fluor 488 secondary antibody. […] No background antibody was observed as shown in the respective controls of cells treated with just primary and secondary antibodies.

The subject of a further assay is MCF-7 cells. The assay is described as follows: immunofluorescence microscopy of phage binding. The class given is cell-based, human. The following applies: 10^8 pfu, RT 1 hr. As to the method:
as §3, §4

A further assay has as its system MCF-7/TGFβ. Put plainly: immunofluorescence microscopy of phage binding. Type of assay: cell-based, human. The following applies: 10^8 pfu, RT 1 hr. As to the method:
as §3, §4

For assay [2], the system named is breast fibroblasts (Hs578T). Put plainly: immunofluorescence microscopy of phage binding. Type of assay: cell-based, human. The note with it: 10^8 pfu, RT 1 hr. The method, then:
as §3, §4

Another assay relates to activated fibroblasts. The assay is described as follows: phage capture assay of phage binding to cancer-conditioned media activated fibroblasts. The class given is cell-based, human. The method, then: as §2
Breast fibroblasts were plated in a 12.5 cm flask cultured until approximately 70% confluent. Once properly confluent, fibroblasts were then cultured in MDA-MB-231 conditioned media or normal fibroblasts media for 72 hours. Thereafter, they were exposed to E11 phage (10^8 pfu) for 2 hours and analyzed for binding in phage capture assay as described above.

For assay [3], the system named is EMT cells (MCF-7/TGFβ, MDA-MB-231, T47D-shNMI). Put plainly: phage based-ELISA (cell-based ELISA). Also on record: species or system human. The note with it: 10^10 PFU, 1 hour at RT. As to the method:
as §1
Confluent monolayers of MCF-7/TGFβ, MDA-MB-231, MCF-7, T47D, T47D-shNMI and breast fibroblasts cells were incubated at room temperature with individual phage clones (10^10 PFU), for 1 hour at RT. Subsequently, cells were washed with PBS containing 0.1% Tween-20, incubated with primary anti-M13-biotin antibody (1:1000), for 1 h, at RT. Cells were washed again with PBS containing 0.1% Tween-20, incubated with secondary antibody streptavidin-HRP (1:2000, 45 min, RT), developed with tetra methyl benzidine and read at absorbance 650 with microplate reader (BioTek).
(In general: In an ELISA, binding on a coated surface is turned into a signal by an enzyme label.)

For a further assay, the target named is T1, heat shock protein HSPD1 (Homo sapiens, UniProt P10809).
T1 construct: endogenous in cells; host or cells: MDA-MB-231 human breast cancer cells
Put plainly: biotinylated phage pulldown of receptor protein from MDA-MB-231. The class given is binding. The following applies: pulldown from MDA-MB-231. As to the method: The biotinylated phage immobilizes the receptor protein. The Dynal magnetic beads are then functionalized with streptavidin. […] To visualize the protein, the SDS-page gel was treated with silver nitrate staining. FIG. 9B discloses SEQ ID NO: 26. FIG. 9 C provides the sequence of Heat shock protein (HSPD1), mitochondrial n=2 Tax=Homo sapiens RepID=CH60_HUMAN 5 exclusive unique peptides, 5 exclusive unique spectra, 8 total spectra, 48/573 amino acids (8% coverage). FIG. 9C discloses SEQ ID NO: 27.

Assay [4] relates to human breast cancer tissue microarray. The assay is described as follows: ex vivo phage binding to human breast cancer tissue microarray. The following applies: for immunostaining for phage in invasive ductal breast cancer carcinoma: invasive ductal carcinoma sections, 10^10 pfu overnight; for binding in normal breast tissues: normal breast tissue. As to the method: FIG. 7A-7E presents results of ex vivo phage binding to a human breast cancer tissue microarray. Tissue microarray of invasive ductal carcinoma and adjacent normal tissues were incubated with 1010 pfu of LGLRGSL phage (SEQ ID NO: 1) or Vimentin antibody and then subsequently with M13-pIII antibody for phage and secondary peroxidase antibody for phage and Vimentin, imaged with a digital light microscope.
The breast tissue microarrays were obtained from Novus Biological (Littleton, Colo.). These include 40 breast cancer infiltrating ductal carcinoma, 10 metastatic lymph node and 9 adjacent normal breast tissues. The use of tissue was approved by the Institutional Review Board of Tuskegee University. Clinico-histopathologic characteristics of the subjects in the tissue microarray study included age, grade, hormone status and clinical stage, according to information provided by the suppliers. The expression levels were classified as negative (≤0.3), weak positive (0.3 to 1.5), or strong positive (≥1.5). Tissues were de-paraffinized in xylene and rehydrated in graded alcohols. For antigen retrieval the slides were pressure-cooked for 10 minutes. Endogenous peroxidase activity was quenched with 3% hydrogen peroxide for 5 minutes. vSlides were treated with LGLRGSL phage (SEQ ID NO: 1) (10^10 pfu) overnight. Slides were subsequently washed and blocked by 3% goat serum at room temperature for 1 hour in humidity chambers. Slides were then treated with M13-pIII phage monoclonal antibody (NEB, MA) or Vimentin antibody (Cell Siganling, Danvers, Mass.) (1:100). The HRP conjugated goat anti-mouse secondary antibody (Jackson Immunoresearch Laboratories Inc, West Grove, Pa.) was applied for 40 minutes. The antigen-antibody reaction was visualized after diaminobenzidine (Sigma-Aldrich, MO) was applied for 7 minutes. The slides were counterstained with hematoxylin (Sigma-Aldrich, MO) for 1 minute. Positive controls were included in each staining run; negative controls were obtained by omitting the primary antibody. Slides were then dehydrated in alcohols and cleared in three xylene baths before being mounted with Permount media.

The source of these data is patent US11624748B2, “Methods and compositions for the identification of epithelial to mesenchymal breast cancer” (Tuskegee University, priority 2019, dated 2023).

T1 sequence (P10809 27-573): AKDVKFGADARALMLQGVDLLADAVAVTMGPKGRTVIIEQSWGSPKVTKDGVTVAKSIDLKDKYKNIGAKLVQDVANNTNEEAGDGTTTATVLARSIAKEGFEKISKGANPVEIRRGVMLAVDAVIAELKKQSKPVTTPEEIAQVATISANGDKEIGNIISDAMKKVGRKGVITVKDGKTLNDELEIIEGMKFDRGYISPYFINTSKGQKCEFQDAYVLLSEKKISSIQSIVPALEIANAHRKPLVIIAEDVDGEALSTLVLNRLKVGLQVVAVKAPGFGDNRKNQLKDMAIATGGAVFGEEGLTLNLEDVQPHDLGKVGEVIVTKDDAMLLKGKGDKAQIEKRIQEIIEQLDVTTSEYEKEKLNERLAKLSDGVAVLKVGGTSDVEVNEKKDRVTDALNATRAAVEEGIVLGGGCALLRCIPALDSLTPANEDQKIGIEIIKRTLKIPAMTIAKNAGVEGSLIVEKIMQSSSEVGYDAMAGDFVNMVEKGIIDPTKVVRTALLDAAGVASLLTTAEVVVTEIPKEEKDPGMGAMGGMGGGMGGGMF

On to KGDYKLF [L42], for which the “selectivity towards MCF-7/TGFβ, MCF-7 and breast fibroblasts” value in assay [1] (MCF-7/TGFβ, MCF-7 and breast fibroblasts) is “not so selective”. The “specificity towards MDA-MB-231 cells” value in [1] (MDA-MB-231 cells) is reported as “high specificity”.
LGLRGSL [E11]: the “phage binding (green fluorescent phage staining)” value in the assay with MDA-MB-231 is given as “abundant binding”; in the assay with MCF-7 cells, “some staining”; with MCF-7/TGFβ it was “abundant binding”; in [2] it was “almost no binding”. Further, the “reactivity to activated fibroblasts” value in the assay with activated fibroblasts (FIG. 5, FBC vs FBD) is “highly reactive”. Also, the “binding to activated-fibroblasts than normal fibroblasts” value in the assay on activated fibroblasts (fibroblasts in MDA-MB-231 conditioned media 72 hours vs normal fibroblast media, 10^8 pfu, 2 hours) is “twice as much”. Besides, in assay [1] (MCF-7/TGFβ), the “selectivity for EMT phenotypic cells” value is listed as “very selective”. The “selectivity towards EMT cells in phage-based ELISA” value in assay [3] is reported as “confirmatory”. The “binding to heat shock protein HSPD1” value on heat shock protein HSPD1 is “binds”. Moreover, the entries for the “immunostaining for phage in invasive ductal breast cancer carcinoma” value in [4] and in assay [4] (listed as LGLRGSL phage) were “substantial staining” and “Strong brown staining”, respectively. In [4] (metastasis in lymph nodes), the “staining intensity in tumors invading into adjacent lymph nodes” value was “increased”. The “binding in normal breast tissues” value in assay [4] is reported as “no binding”; in assay [4] (listed as LGLRGSL phage), “no staining”. Moreover, the “staining around the invasive or leading edge of the tumor-stromal interaction” value in assay [4] (tumor cells, invasive or leading edge) is reported as “robust staining”.
For the substance GTFLFS [E32], the “selectivity for EMT phenotypic cells” value in [1] (MCF-7/TGFβ) is “very selective”.
PNLPWVP [E45]: the “selectivity for EMT phenotypic cells” value in assay [1] (MCF-7/TGFβ) was “very selective”.
